Data published in patent publication US20040122045A1, “Timing curation of administration of adenosine A1/A2 agonist for cardioprotection” (Aventis Pharmaceuticals Inc., priority 2001, published 2004).
pKi: −log10 of the molar value. Read-outs that look alike come from different tables or passages of the source.

Key:
chick cardiomyocytes = settings: cited from earlier work
A1 receptor subtype = biological target: T1, A1 receptor subtype (Homo sapiens, UniProt P30542); settings: cited from earlier work
T1 sequence (P30542 1-326): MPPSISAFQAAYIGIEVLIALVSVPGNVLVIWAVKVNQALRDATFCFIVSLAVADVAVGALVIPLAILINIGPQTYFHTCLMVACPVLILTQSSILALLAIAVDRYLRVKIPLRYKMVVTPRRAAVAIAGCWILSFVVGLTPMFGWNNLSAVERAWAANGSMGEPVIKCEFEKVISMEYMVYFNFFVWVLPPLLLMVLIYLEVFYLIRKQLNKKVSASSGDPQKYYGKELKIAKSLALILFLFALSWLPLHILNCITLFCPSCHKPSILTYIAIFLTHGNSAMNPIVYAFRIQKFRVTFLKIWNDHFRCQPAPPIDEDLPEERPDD

A2a receptor subtype = A2a receptor subtype (Homo sapiens, UniProt P29274); settings: cited from earlier work
Sequence of A2a receptor subtype (P29274 whole entry, the tested form may be a part): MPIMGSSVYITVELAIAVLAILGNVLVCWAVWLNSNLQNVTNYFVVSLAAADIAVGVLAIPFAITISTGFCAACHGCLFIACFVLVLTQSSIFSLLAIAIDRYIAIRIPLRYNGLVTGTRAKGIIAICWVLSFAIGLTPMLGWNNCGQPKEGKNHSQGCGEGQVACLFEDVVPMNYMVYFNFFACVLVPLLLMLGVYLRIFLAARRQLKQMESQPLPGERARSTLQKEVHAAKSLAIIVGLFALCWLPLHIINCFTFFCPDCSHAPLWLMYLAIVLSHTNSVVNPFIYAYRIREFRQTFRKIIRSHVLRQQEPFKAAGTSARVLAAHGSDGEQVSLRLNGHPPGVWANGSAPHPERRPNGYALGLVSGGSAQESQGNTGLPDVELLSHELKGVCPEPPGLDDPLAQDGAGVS

[1] = Hemodynamics (heart rate, mean arterial pressure) during ischemia/reperfusion
rabbit hearts = settings: cited from earlier work
in situ rabbit hearts = experiment: Infarct size after 30 min regional ischemia/3 h reperfusion, in situ rabbit hearts; type: in vivo, New Zealand White rabbits; settings: for Infarct size, percentage of the risk zone: AMP 579 30 μg/kg iv bolus + 3 μg/kg/min; for Protection against infarction: Adenosine 150, 300 or 400 μg/kg/min; for Infarct size (% of risk zone): starting 10 minutes before reperfusion
Experimental: Body temperature was maintained at 38-39° C. […] Ischemia was confirmed by appearance of cyanosis.
After 3 h of reperfusion, the rabbit was given an overdose of pentobarbital and the heart was quickly removed from the chest, mounted on a Langendorff apparatus, and perfused with saline to wash out blood. Then the coronary artery was reoccluded, and 5 ml of 0.1% zinc/cadmium sulfide particles (1-10 μm diameter, Duke Scientific Corp, Palo Alto, Calif.) were infused into the perfusate to demarcate the risk zone as the area of tissue without fluorescence. The heart was weighed, frozen, and cut into 2.5-mm-thick slices. The slices were incubated in 1% triphenyltetrazolium chloride (TTC) in sodium phosphate buffer at 37° C. for 20 min. The slices were immersed in 10% formalin to enhance the contrast between stained (viable) and unstained (necrotic) tissue and then squeezed between glass plates spaced exactly 2 mm apart. The myocardium at risk was identified by illuminating the slices with ultraviolet light. The infarcted and risk zone areas were traced on a clear acetate sheet and quantified with planimetry by an investigator blinded to the treatment. The areas were converted into volumes by multiplying the areas by slice thickness. Infarct size is expressed as a percentage of the risk zone.
The control group received no drug treatment.

rabbit heart = settings: cited from earlier work
[2] = AMP (30 min): 30 μg/kg iv bolus + 3 μg/kg/min, started 10 min before reperfusion, 30 min, Baseline
[3] = AMP (30 min): started 10 min before reperfusion, 30 min, Ischemia (end of 30 min)
[4] = AMP (30 min): started 10 min before reperfusion, 30 min, Rep 30′
[5] = AMP (30 min): started 10 min before reperfusion, 30 min, Rep 90′
[6] = AMP (30 min): started 10 min before reperfusion, 30 min, Rep 180′
[7] = AMP (40 min): 30 μg/kg iv bolus + 3 μg/kg/min, started 10 min before reperfusion, 40 min, Baseline
[8] = AMP (40 min): started 10 min before reperfusion, 40 min, Ischemia (end of 30 min)
[9] = AMP (40 min): started 10 min before reperfusion, 40 min, Rep 30′
[10] = AMP (40 min): started 10 min before reperfusion, 40 min, Rep 90′
[11] = AMP (40 min): started 10 min before reperfusion, 40 min, Rep 180′
[12] = AMP (70 min, late): 30 μg/kg iv bolus + 3 μg/kg/min, started 10 min after reperfusion, 70 min, Baseline
[13] = AMP (70 min, late): started 10 min after reperfusion, 70 min, Ischemia (end of 30 min)
[14] = AMP (70 min, late): started 10 min after reperfusion, 70 min, Rep 30′
[15] = AMP (70 min, late): started 10 min after reperfusion, 70 min, Rep 90′
[16] = AMP (70 min, late): started 10 min after reperfusion, 70 min, Rep 180′
[17] = AMP (70 min, onset): 30 μg/kg iv bolus + 3 μg/kg/min, started at onset of reperfusion, 70 min, Baseline
[18] = AMP (70 min, onset): started at onset of reperfusion, 70 min, Ischemia (end of 30 min)
[19] = AMP (70 min, onset): started at onset of reperfusion, 70 min, Rep 30′
[20] = AMP (70 min, onset): started at onset of reperfusion, 70 min, Rep 90′
[21] = AMP (70 min, onset): started at onset of reperfusion, 70 min, Rep 180′
[22] = Adenosine 150 μg/kg/min iv, 70 min starting 10 min before reperfusion
[23] = Adenosine 300 μg/kg/min iv, 70 min starting 10 min before reperfusion
[24] = Adenosine 400 μg/kg/min iv, 70 min starting 10 min before reperfusion

CCNC(=O)[C@H]1CC(n2cnc3c(N[C@H](CC)Cc4sccc4Cl)ccnc32)[C@H](O)[C@@H]1O (relative stereo) [AMP 579, [1S-[1α,2β,3β,4α(S*)]]-4-[7-[[3-chloro-2-thienyl)methyl]propyl]amino]-3H-imidazo[4,5-b]pyridin-3-yl]-N-ethyl-2,3-dihydroxycyclopentanecarboxamide]
Burst of free radicals at reperfusion (chick cardiomyocytes; 1 μM): virtually eliminated it
pKi (A1 receptor subtype): 8.30
pKi (A2a receptor subtype): 7.25
HR [1, 2]: 271 ± 3 beats/min
MAP [1, 2]: 91.8 ± 2.8 mmHg
HR [1, 3]: 247 ± 5 beats/min
MAP [1, 3]: 73.7 ± 3.9 mmHg
HR [1, 4]: 241 ± 7 beats/min
MAP [1, 4]: 74.8 ± 5.1 mmHg
HR [1, 5]: 256 ± 11 beats/min
MAP [1, 5]: 77.7 ± 5.7 mmHg
HR [1, 6]: 265 ± 6 beats/min
MAP [1, 6]: 77.9 ± 5.2 mmHg
HR [1, 7]: 271 ± 11 beats/min
MAP [1, 7]: 99.3 ± 2.4 mmHg
HR [1, 8]: 268 ± 7 beats/min
MAP [1, 8]: 76.8 ± 6.6 mmHg
HR [1, 9]: 250 ± 14 beats/min
MAP [1, 9]: 70.4 ± 8.1 mmHg
HR [1, 10]: 268 ± 13 beats/min
MAP [1, 10]: 83.5 ± 5.0 mmHg
HR [1, 11]: 268 ± 10 beats/min
MAP [1, 11]: 81.8 ± 4.5 mmHg
HR [1, 12]: 285 ± 3 beats/min
MAP [1, 12]: 96.9 ± 2.9 mmHg
HR [1, 13]: 281 ± 1 beats/min
MAP [1, 13]: 84.6 ± 4.5 mmHg
HR [1, 14]: 243 ± 8 beats/min
MAP [1, 14]: 57.4 ± 5.6 mmHg
HR [1, 15]: 240 ± 6 beats/min
MAP [1, 15]: 69.0 ± 4.9 mmHg
HR [1, 16]: 259 ± 10 beats/min
MAP [1, 16]: 68.1 ± 3.6 mmHg
HR [1, 17]: 262 ± 6 beats/min
MAP [1, 17]: 98.6 ± 3.2 mmHg
HR [1, 18]: 270 ± 9 beats/min
MAP [1, 18]: 89.0 ± 3.2 mmHg
HR [1, 19]: 233 ± 9 beats/min
MAP [1, 19]: 55.6 ± 3.9 mmHg
HR [1, 20]: 235 ± 16 beats/min
MAP [1, 20]: 70.8 ± 4.5 mmHg
HR [1, 21]: 264 ± 10 beats/min
MAP [1, 21]: 79.6 ± 3.9 mmHg
Hypotensive effect ([1]; infusion commenced before the onset of reperfusion (AMP 30 min and AMP 40 min groups)): additional mild hypotensive effect
Protection against infarction (dose required) (rabbit hearts; 3 μg/kg/min): protective
Infarct size, percentage of the risk zone (rabbit hearts; 70-min infusion starting 10 min prior to reperfusion, previous study (Xu et al.)): 12.3±1.0%
Infarct size, percentage of the risk zone (in situ rabbit hearts; 70 min, started 10 min after reperfusion): 27.6±7.2%
Infarct size, percentage of the risk zone (in situ rabbit hearts; 70 min, started at onset of reperfusion, p<0.05 vs. control): 13.0±1.9%
Infarct size, percentage of the risk zone (in situ rabbit hearts; started 10 min before reperfusion, 30 min infusion): 30.1±1.4%
Infarct size, percentage of the risk zone (in situ rabbit hearts; started 10 min before reperfusion, 40 min infusion): 24.8±5.9%
Infarct size (in situ rabbit hearts; AMP (30 min): 30 μg/kg iv bolus + 3 μg/kg/min, started 10 min before reperfusion, 30 min): 0.27 ± 0.05 cm^3
Infarct size (in situ rabbit hearts; AMP (40 min): 30 μg/kg iv bolus + 3 μg/kg/min, started 10 min before reperfusion, 40 min): 0.27 ± 0.07 cm^3
Infarct size (in situ rabbit hearts; AMP (70 min, late): 30 μg/kg iv bolus + 3 μg/kg/min, started 10 min after reperfusion, 70 min): 0.28 ± 0.07 cm^3
Infarct size (in situ rabbit hearts; AMP (70 min, onset): 30 μg/kg iv bolus + 3 μg/kg/min, started at onset of reperfusion, 70 min, * p<0.05 vs. control): 0.14 ± 0.03* cm^3
Onset of contracture that accompanies reperfusion (rabbit heart): greatly attenuates the onset of contracture

Nc1ncnc2c1ncn2[C@@H]1O[C@H](CO)[C@@H](O)[C@H]1O [Adenosine]
Burst of free radicals at reperfusion (chick cardiomyocytes; 100 μM (a receptor saturating concentration)): failed to block the burst of free radicals at reperfusion
% infarction of the risk zone (in situ rabbit hearts; [22]): 32.6 ± 5.8%
Infarct size (in situ rabbit hearts; [22]): 0.36 ± 0.09 cm^3
% infarction of the risk zone (in situ rabbit hearts; [23]): 34.4 ± 9.5%
Infarct size (in situ rabbit hearts; [23]): 0.36 ± 0.11 cm^3
% infarction of the risk zone (in situ rabbit hearts; [24]): 29.2 ± 8.0%
Infarct size (in situ rabbit hearts; [24]): 0.30 ± 0.08 cm^3
Protection against infarction (in situ rabbit hearts; 70 min starting 10 min before reperfusion): No protection was seen
Protection against infarction (in situ rabbit hearts; 70 min starting 10 min before reperfusion, listed as adenosine): none of the doses was protective
Infarct size (% of risk zone) (in situ rabbit hearts; Infusion rate 300 ug/kg/min): 34.4 ± 9.5%
Infarct size (% of risk zone) (in situ rabbit hearts; Infusion rate 400 ug/kg/min): 29.2 ± 8.0%
